Source: patent US12465590B2, “Oxalamido-substituted tricyclic inhibitors of hepatitis b virus” (priority 2019, dated 2025)
pEC50: −log10 of the molar value.

test system: HBV; assay: HBV inhibition assay in HepAD38 cells (extracellular HBV DNA by direct qPCR); assay type: cell-based, HBV genotype D subtype ayw; conditions: 96 hours, read-out: HBV inh EC50
Text: HepAD38 cell line (Ladner et al., Antimicrob Agents Chemother, 1997, 41, 1715-20) was used for HBV inhibition assays. HepAD38 is a subclone, derived from hepatoblastoma cell line HepG2 (ATCC® Number: HB-8065), that expresses HBV genome (genotype D subtype ayw) under the transcriptional control of a tetracycline-responsive promoter in a TET-OFF system: addition of doxycycline, an antibiotic belonging to the class of tetracycline, suppresses HBV replication, while its removal switches on the process allowing HBV viral particles release in the cell supernatant. HepAD38 cell line is maintained in DMEM/F12, supplemented with 10% of fetal bovine serum, 1% of glutamine, 1% of penicillin/streptomycin, 0.4 mg/ml G418 and 0.3 ug/ml tetracycline. For the HBV inhibition assay, doxycycline-free medium is used in order to allow virion production.
HBV inhibition activity in vitro was performed in 96 multiwell plates. During the initial (primary) screening, compounds were first tested in triplicates at concentrations of 0.02 μM, 0.1 μM, 0.5 μM and 1 μM. For selected compounds, an 8-point dose-response curve was obtained using 1:2 serial dilutions (starting from 0.01 μM, 0.1 μM, 0.4 μM or 5 μM, depending on the degree of inhibition observed during the primary screening). From the dose-response curves, half maximal effective concentration (EC50) could be calculated (see also below).
In more detail, compounds—typically dissolved in DMSO stock solutions—were diluted to 2× the final desired concentration in 100 μl of the above medium (without doxycycline) and plated in three replicates in the 96-well plates.
Simultaneously, HepAD38 cells—extensively pre-washed in doxycycline-free medium in order to induce HBV production—were suspended at 2*10^4 cells in 100 μl of doxycycline-free medium and added to each well of the plate, to yield a final assay volume of 200 μl.
DMSO, used for stock solutions and compounds dilutions, was always present in the assays at a final concentration of 0.5%.
Plates were then incubated 96 hours at 37° C. and then subjected to cell viability assays and extracellular HBV quantification, in order to evaluate both the cytotoxic potential and the antiviral activity of compounds.
Cytotoxicity was assessed by a commercial fluorescence assay that measures the metabolic activity of cells, directly related to cell viability (Cell Titer Blue, Promega). For each compound, cytotoxicity was evaluated at the same concentration employed to evaluate its anti-HBV activity. Anti-HBV activity was evaluated by quantification of extracellular HBV DNA with direct qPCR. In particular, supernatant was collected and centrifuged for cell debris clarification, viral DNA was extracted from virions by addition of lysis buffer (1 mM 1,4-dithiothreitol, 0.2% sodium dodecyl sulphate) and incubated at 95° C. for 10 min. Samples were then diluted 1:40 and real time PCR amplification was performed with SYBR green assay (Power SYBR™ Green PCR Master Mix-Thermo Fisher Scientific) and specific HBV primer (HBV-DF:5′-[…]-3′ (SEQ ID No. 1), HBV-DR:5′-[…]-3′ (SEQ ID No. 2)).
Antiviral activity data for each compound are reported as EC50 value (see Table 1 legend). Excel and Graphpad Prism programs are typically used for data elaboration and EC50 calculation.

| Compound | pEC50 |
| --- | --- |
| Cc1cc(NC(=O)c2c3c(cn2C)S(=O)(=O)NC2CN(C(=O)C(=O)NC(C)(C)C(F)(F)F)CCC2CO3)ccc1F (racemic) [Example E69, Trans-N-(4-fluoro-3-methylphenyl)-2-methyl-7-(2-oxo-2-((1,1,1-trifluoro-2-methylpropan-2-yl)amino)acetyl)-5,5a,6,7,8,9,9a,10-octahydro-2H-pyrido[3,4-f]pyrrolo[3,4-b][1,4,5]oxathiazocine-1-carboxamide 4,4-dioxide] | > 6.30 |
| Cc1cc(NC(=O)c2c3c(cn2C)S(=O)(=O)NC2CCN(C(=O)C(=O)NCC(F)(F)F)CC2CO3)ccc1F (racemic) [Example E73, Cis-N-(4-fluoro-3-methylphenyl)-2-methyl-8-(2-oxo-2-((2,2,2-trifluoroethyl)amino)acetyl)-5,5a,6,7,8,9,9a,10-octahydro-2H-pyrido[4,3-f]pyrrolo[3,4-b][1,4,5]oxathiazocine-1-carboxamide 4,4-dioxide] | > 6.30 |
| Cc1cc(NC(=O)c2c3c(cn2C)S(=O)(=O)NC2CCN(C(=O)C(=O)N[C@H](C)C(F)(F)F)CC2CO3)ccc1F (mixture of isomers) [Example E72, Cis-N-(4-fluoro-3-methylphenyl)-2-methyl-8-(2-oxo-2-(((R)-1,1,1-trifluoropropan-2-yl)amino)acetyl)-5,5a,6,7,8,9,9a,10-octahydro-2H-pyrido[4,3-f]pyrrolo[3,4-b][1,4,5]oxathiazocine-1-carboxamide 4,4-dioxide] | > 6.30 |
| Cc1cc(NC(=O)c2c3c(cn2C)S(=O)(=O)NC2CN(C(=O)C(=O)NCC(F)(F)F)CCC2CO3)ccc1F (racemic) [Example E68, Trans-N-(4-fluoro-3-methylphenyl)-2-methyl-7-(2-oxo-2-((2,2,2-trifluoroethyl)amino)acetyl)-5,5a,6,7,8,9,9a,10-octahydro-2H-pyrido[3,4-f]pyrrolo[3,4-b][1,4,5]oxathiazocine-1-carboxamide 4,4-dioxide] | > 6.30 |

same assay, conditions: Hepatitis B virus, 96 hours, read-out: HBV inh EC50

| Compound | pEC50 |
| --- | --- |
| Cc1cc(NC(=O)c2c3c(cn2C)S(=O)(=O)NC2(C)CN(C(=O)C(=O)N[C@H](C)C(F)(F)F)CC2CO3)ccc1F (stereo in doubt) [Example E27, Cis-N-(4-fluoro-3-methylphenyl)-3a,7-dimethyl-2-(2-oxo-2-(((R)-1,1,1-trifluoropropan-2-yl)amino)acetyl)-2,3,3a,4,10,10a-hexahydro-1H,7H-dipyrrolo[3,4-b:3 ‘,4’-f][1,4,5]oxathiazocine-8-carboxamide 5,5-dioxide] | > 6.30 |
| Cc1cc(NC(=O)c2c3c(cn2C)S(=O)(=O)NC2CCN(C(=O)C(=O)N4CC(F)(F)C4)CC2CO3)ccc1F (racemic) [Example E55, Trans-8-(2-(3,3-difluoroazetidin-1-yl)-2-oxoacetyl)-N-(4-fluoro-3-methylphenyl)-2-methyl-5,5a,6,7,8,9,9a,10-octahydro-2H-pyrido[4,3-f]pyrrolo[3,4-b][1,4,5]oxathiazocine-1-carboxamide 4,4-dioxide] | > 6.30 |
| Cc1cc(NC(=O)c2c3c(cn2C)S(=O)(=O)NC2CN(C(=O)C(=O)NC4CC4)CCC2CO3)ccc1F (racemic) [Example E64, Cis-7-(2-(cyclopropylamino)-2-oxoacetyl)-N-(4-fluoro-3-methylphenyl)-2-methyl-5,5a,6,7,8,9,9a,10-octahydro-2H-pyrido[3,4-f]pyrrolo[3,4-b][1,4,5]oxathiazocine-1-carboxamide 4,4-dioxide] | > 6.30 |
| Cc1cc(NC(=O)c2c3c(cn2C)S(=O)(=O)NC2CN(C(=O)C(=O)N4CC(F)(F)C4)CCC2CO3)ccc1F (racemic) [Example E63, Cis-7-(2-(3,3-difluoroazetidin-1-yl)-2-oxoacetyl)-N-(4-fluoro-3-methylphenyl)-2-methyl-5,5a,6,7,8,9,9a,10-octahydro-2H-pyrido[3,4-f]pyrrolo[3,4-b][1,4,5]oxathiazocine-1-carboxamide 4,4-dioxide] | > 6.30 |
| Cc1cc(NC(=O)c2c3c(c(C)n2C)S(=O)(=O)N[C@H]2CN(C(=O)C(=O)N[C@H](C)C(F)(F)F)C[C@H]2CO3)ccc1F [Example E53, (3aR,10aR)—N-(4-fluoro-3-methylphenyl)-6,7-dimethyl-2-(2-oxo-2-(((R)-1,1,1-trifluoropropan-2-yl)amino)acetyl)-2,3,3a,4,10,10a-hexahydro-1H,7H-dipyrrolo[3,4-b:3′,4′-f][1,4,5]oxathiazocine-8-carboxamide 5,5-dioxide] | > 6.30 |
| Cc1cc(NC(=O)c2c3c(cn2C)S(=O)(=O)NC2CN(C(=O)C(=O)NC(C)(C)C(F)(F)F)CCC2CO3)ccc1F (racemic) [Example E62, Cis-N-(4-fluoro-3-methylphenyl)-2-methyl-7-(2-oxo-2-((1,1,1-trifluoro-2-methylpropan-2-yl)amino)acetyl)-5,5a,6,7,8,9,9a,10-octahydro-2H-pyrido[3,4-f]pyrrolo[3,4-b][1,4,5]oxathiazocine-1-carboxamide 4,4-dioxide] | > 6.30 |
| Cc1cc(NC(=O)c2c3c(cn2C)S(=O)(=O)NC2CCN(C(=O)C(=O)NC4CC4)CC2CO3)ccc1F (racemic) [Example E54, Trans-8-(2-(cyclopropylamino)-2-oxoacetyl)-N-(4-fluoro-3-methylphenyl)-2-methyl-5,5a,6,7,8,9,9a,10-octahydro-2H-pyrido[4,3-f]pyrrolo[3,4-b][1,4,5]oxathiazocine-1-carboxamide 4,4-dioxide] | > 6.30 |
| Cc1cc(NC(=O)c2c3c(cn2C)S(=O)(=O)NC2CN(C(=O)C(=O)N[C@H](C)C(F)(F)F)CC2CO3)ccc1F (stereo in doubt) [Example E30, trans-N-(4-fluoro-3-methylphenyl)-7-methyl-2-(2-oxo-2-(((R)-1,1,1-trifluoropropan-2-yl)amino)acetyl)-2,3,3a,4,10,10a-hexahydro-1H,7H-dipyrrolo[3,4-b:3′,4′-f][1,4,5]oxathiazocine-8-carboxamide 5,5-dioxide] | > 6.30 |
| Cc1cc(NC(=O)c2c3c(cn2C)S(=O)(=O)NC2CN(C(=O)C(=O)N[C@H](C)C(F)(F)F)CC2(C)CO3)ccc1F (stereo in doubt) [Example E26, Cis-N-(4-fluoro-3-methylphenyl)-7,10a-dimethyl-2-(2-oxo-2-(((R)-1,1,1-trifluoropropan-2-yl)amino)acetyl)-2,3,3a,4,10,10a-hexahydro-1H,7H-dipyrrolo[3,4-b:3′,4′-f][1,4,5]oxathiazocine-8-carboxamide 5,5-dioxide] | > 6.30 |
| Cc1cc(NC(=O)c2c3c(cn2C)S(=O)(=O)NC2CN(C(=O)C(=O)NCC(F)(F)F)CCC2CO3)ccc1F (racemic) [Example E61, Cis-N-(4-fluoro-3-methylphenyl)-2-methyl-7-(2-oxo-2-((2,2,2-trifluoroethyl)amino)acetyl)-5,5a,6,7,8,9,9a,10-octahydro-2H-pyrido[3,4-f]pyrrolo[3,4-b][1,4,5]oxathiazocine-1-carboxamide 4,4-dioxide] | > 6.30 |
| Cc1cc(NC(=O)c2c3c(cn2C)S(=O)(=O)NC2CCN(C(=O)C(=O)N[C@@H](C)C(F)(F)F)CC2CO3)ccc1F (mixture of isomers) [Example E56, Trans-N-(4-fluoro-3-methylphenyl)-2-methyl-8-(2-oxo-2-(((S)-1,1,1-trifluoropropan-2-yl)amino)acetyl)-5,5a,6,7,8,9,9a,10-octahydro-2H-pyrido[4,3-f]pyrrolo[3,4-b][1,4,5]oxathiazocine-1-carboxamide 4,4-dioxide] | > 6.30 |
| Cc1cc(NC(=O)c2c3c(cn2C)S(=O)(=O)NC2CCN(C(=O)C(=O)NC(C)(C)C(F)(F)F)CC2CO3)ccc1F (racemic) [Example E58, Trans-N-(4-fluoro-3-methylphenyl)-2-methyl-8-(2-oxo-2-((1,1,1-trifluoro-2-methylpropan-2-yl)amino)acetyl)-5,5a,6,7,8,9,9a,10-octahydro-2H-pyrido[4,3-f]pyrrolo[3,4-b][1,4,5]oxathiazocine-1-carboxamide 4,4-dioxide] | > 6.30 |
